# In PubChem BioAssay (NCI):
# Values joined by “and” are separate entries in the source; they are usually repeats but may differ in a detail not shown here. Equal entries are not always repeated.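 Cells were grown in 96-well plates and exposed to each compound for 48 hours at five concentrations; endpoints were interpolated linearly between bracketing concentrations, or set to the highest concentration if not reached. Abbreviation: GI50, concentration required for 50% inhibition of growth. At the TGI there is no net growth.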
# Legend:
# Assay in all cases: NCI tumour cell line growth inhibition, 48 h
# ACHN renal = system: ACHN renal
# IGROV1 ovarian = system: IGROV1 ovarian
# OVCAR-5 ovarian = system: OVCAR-5 ovarian
# SW-620 colon = system: SW-620 colon
# COLO 205 colon = system: COLO 205 colon
# PC-3 prostate = system: PC-3 prostate
# NCI/ADR-RES ovarian = system: NCI/ADR-RES ovarian
# HCC-2998 colon = system: HCC-2998 colon
# A498 renal = system: A498 renal
# BT-549 breast = system: BT-549 breast
SMILES,TGI (ACHN renal),TGI (IGROV1 ovarian),TGI (OVCAR-5 ovarian),TGI (SW-620 colon),TGI (COLO 205 colon),TGI (PC-3 prostate) [µM],TGI (NCI/ADR-RES ovarian) [µM],TGI (HCC-2998 colon),TGI (A498 renal) [µM],GI50 (ACHN renal) [µM],GI50 (IGROV1 ovarian) [µM],GI50 (OVCAR-5 ovarian) [µM],GI50 (SW-620 colon) [µM],GI50 (COLO 205 colon) [µM],GI50 (HCC-2998 colon) [nM],GI50 (BT-549 breast) [µM],TGI (BT-549 breast) [µM],GI50 (PC-3 prostate) [µM],GI50 (NCI/ADR-RES ovarian) [µM],GI50 (A498 renal) [µM]
Cc1ccc(-c2ccc(Nc3c4ccccc4nc4ccccc34)cc2)cn1,6.76 µM,18.4 µM,69.5 µM,14.9 µM,12.2 µM,28.8,65.6,44.7 µM,–,–,–,–,–,–,–,–,–,–,–,–
CC(=O)O[C@H]1[C@@H]2[C@@H]3[C@@H](C[C@H]1C)[C@@H](C)CO[C@@]1(C)CC/C=C(/C)C[C@@H]2O[C@@H]31,> 100 µM,> 100 µM,> 100 µM,> 100 µM,> 100 µM,–,–,> 100 µM,> 100,–,–,–,–,–,–,–,–,–,–,–
FC(F)(F)c1ccc(C=NC23CC4CC(CC(C4)C2)C3)cc1,> 100 µM,> 100 µM,> 100 µM,> 100 µM,> 100 µM,–,–,> 100 µM,> 100,–,–,–,–,–,–,–,–,–,–,–
CC(=O)OCC1OC(OC2CC3C(C)(C)C(OC(C)=O)CC[C@]3(C)C3CCC45CC4(CC[C@H]5C(C)CC(O)C4OC4(C)C)[C@]23C)C(O)C(O)C1O (stereo partly drawn),7.28 µM and 11.7 µM,0.829 µM and 4.56 µM,2.52 µM and 4.46 µM,9.98 µM and 11.3 µM,1.84 µM and 3.79 µM,–,–,2.71 µM and 4.26 µM,10.2,3.44,2.42,2.02,3.46,2.05,2680,–,–,–,–,–
Cc1ccc(NC(=O)CC(=O)n2nc(-c3ccccc3)c(N=Nc3ccc(Cl)cc3)c2-c2ccccc2)cc1,> 100 µM,> 100 µM,> 100 µM,31 µM,> 100 µM,–,–,> 100 µM,> 100,–,–,–,–,–,–,–,–,–,–,–
O=C(CC/C(C/C(=N/O)c1ccc(F)cc1)=N/O)N(Cc1ccccc1)Cc1ccccc1,> 100 µM,> 100 µM,> 100 µM,> 100 µM,> 100 µM,–,–,> 100 µM,> 100,–,–,–,–,–,–,–,–,–,–,–
COc1ccc2cc(C(=O)/C=C/c3cccc(Cl)c3Cl)ccc2c1,33 µM,> 100 µM,95.2 µM,> 100 µM,> 71.6 µM,> 81.9,> 100,–,32.1,3.76,16.6,36.9,1.32,24.7,–,12.5,48.9,12.4,12.7,18.1
O=C1CC2CCCCC2=C1O (stereo not drawn),> 100 µM,> 100 µM,> 100 µM,> 100 µM,> 100 µM,–,–,> 100 µM,> 100,–,–,–,–,–,–,–,–,–,–,–
CC1CCCC(C(O)CC2CC(=O)N(c3ccccc3)C(=O)C2)C1=O (stereo not drawn),> 100 µM,> 100 µM,> 100 µM,> 100 µM,> 100 µM,–,–,> 100 µM,> 100,–,–,–,–,–,–,–,–,–,–,–
C/C(=N\NC(=O)CC(=O)Nc1ccc(Cl)cc1)c1cc2ccccc2oc1=O,> 100 µM,> 100 µM,–,> 100 µM,> 100 µM,–,–,–,–,–,–,–,–,–,–,–,–,–,–,–
NC1=NC(c2ccccc2)N=C(Nc2ccccc2)N1 (stereo not drawn),> 100 µM,> 100 µM,> 100 µM,> 100 µM,> 100 µM,> 100,> 100,–,> 100,> 100,39.4,> 100,> 100,97.9,–,> 100,> 100,> 100,> 100,11.4
